Patent publication US20090324754A1, “EUCALYPTUS EXTRACT, METHOD OF PREPARATION AND THERAPEUTIC USES THEREOF” (Pierre Fabre Medicament, priority 2006, published 2009)

Molecular target: T1, serotonin reuptake (Rattus norvegicus, UniProt P31652)
T1 construct: Synapses obtained from rat brains; from tissue; host or cells: rat brain synapses (synaptosomes)
Experiment: Serotonin (5-HT) reuptake, [3H]-serotonin uptake in rat brain synapses
Assay type: biochemical
Settings: 0.3 μg of extract/ml of solution
Method: The uptake tests were carried out in vitro on synapses of rats.
The baseline activity is determined by incubating the same mixture for 15 minutes at 37° C. in the presence of 10 μM imipramine in order to block the reuptake.
Following the incubation, the samples are filtered rapidly in vacuo through glass-fibre filters (GB/B, Packard) and rinsed twice with ice-cold incubation buffer in order to eliminate free [^3H]-serotonin. The filters are dried and the retained radioactivity is measured by means of a scintillation counter (Topcount, Packard) using a scintillation cocktail (Microscint O, Packard).
The results are expressed as a percent inhibition of the control uptake of [^3H]-serotonin (see Table 1)

T1 sequence (P31652 whole entry): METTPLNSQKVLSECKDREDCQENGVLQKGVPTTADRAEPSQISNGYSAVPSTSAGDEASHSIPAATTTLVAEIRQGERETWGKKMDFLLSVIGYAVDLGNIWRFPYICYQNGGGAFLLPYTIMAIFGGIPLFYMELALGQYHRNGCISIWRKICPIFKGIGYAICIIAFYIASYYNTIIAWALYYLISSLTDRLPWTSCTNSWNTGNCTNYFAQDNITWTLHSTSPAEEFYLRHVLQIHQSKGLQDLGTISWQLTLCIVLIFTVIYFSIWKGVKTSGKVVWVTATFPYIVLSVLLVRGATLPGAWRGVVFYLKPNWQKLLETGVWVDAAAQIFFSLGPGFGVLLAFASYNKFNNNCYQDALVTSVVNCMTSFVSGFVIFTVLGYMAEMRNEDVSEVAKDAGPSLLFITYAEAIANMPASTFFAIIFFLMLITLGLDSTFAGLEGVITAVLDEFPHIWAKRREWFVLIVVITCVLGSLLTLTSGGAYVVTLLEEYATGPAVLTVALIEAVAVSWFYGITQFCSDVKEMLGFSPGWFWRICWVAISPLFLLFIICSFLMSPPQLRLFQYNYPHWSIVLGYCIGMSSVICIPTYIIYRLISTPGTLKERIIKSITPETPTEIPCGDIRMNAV

% inhibition of serotonin reuptake: 103.8%
SMILES: C=C1CCC2C(C3C1CCC3(C)C(CC(C)C)c1c(O)c(C=O)c(O)c(C=O)c1O)C2(C)C (stereo not shown) [Macrocarpal G, 5-(1-(3,3,11-trimethyl-7-methylene-tricyclo(6.3.0.0(2,4))undec-11-yl)-3-methylbutyl)-2,4,6-trihydroxybenzene-1,3-dicarbaldehyde]
